Reference: patent publication US7592332B2, “Cytokine inhibitors” (Boehringer Ingelheim Pharmaceuticals, Inc., priority 2004, dated 2009)
Where a name gives a salt, the structure may show the parent alone.

Structure (SMILES): COc1cnc(C(C)(C)C)cc1NC(=O)c1cc2cccc(Oc3ccnc(N4CCN(C)CC4)n3)c2n1C (as salt: salt) [Example 2, 1-methyl-7-[2-(4-methyl-piperazin-1-yl)-pyrimidin-4-yloxy]-1H-indole-2-carboxylic acid (2-tert-butyl-5-methoxy-pyridin-4-yl)-amide]
- melting point: 72 to 74 °C (dec.)

Structure (SMILES): Cn1c(C(=O)Nc2cc(C(C)(C)C)ccc2[S+](C)[O-])cc2cccc(Oc3ccncc3)c21 (stereo not drawn) [Example 3, 1-methyl-7-(pyridine-4-yloxy)-1H-indole-2-carboxylic acid (5-tert-butyl-2-methanesulfinyl-phenyl)-amide]
- melting point: 88 to 92 °C (dec.)

Structure (SMILES): Cn1c(C(=O)Nc2cc(C(C)(C)C)ccc2S(C)(=O)=O)cc2cccc(Oc3ccncc3)c21 [Example 4, 1-methyl-7-(pyridine-4-yloxy)-1H-indole-2-carboxylic acid (5-tert-butyl-2-methanesulfonyl-phenyl)-amide]
- melting point: 158 to 159 °C (dec.)

Structure (SMILES): Cn1c(C(=O)Nc2cc(C(C)(C)C)c[nH]c2=O)cc2cccc(Oc3ccncc3)c21 [Example 5, 1-methyl-7-(pyridine-4-yloxy)-1H-indole-2-carboxylic acid (5-tert-butyl-2-oxo-1,2-dihydropyridin-3-yl)-amide]
- melting point: 236 to 238 °C (dec.)

Structure (SMILES): Cn1cc(C(C)(C)C)cc(NC(=O)c2cc3cccc(Oc4ccncc4)c3n2C)c1=O [Example 6, 1-methyl-7-(pyridine-4-yloxy)-1H-indole-2-carboxylic acid (5-tert-butyl-1-methyl-2-oxo-1,2-dihydropyridin-3-yl)-amide]
- melting point: 74 to 76 °C (dec.)

Structure (SMILES): Cc1ncc(C(C)(C)C)cc1NC(=O)c1cc2cccc(Oc3ccncc3)c2n1C [Example 7, 1-methyl-7-(pyridine-4-yloxy)-1H-indole-2-carboxylic acid (5-tert-butyl-2-methyl-pyridin-3-yl)-amide]
- melting point: 52 to 56 °C (dec.)
